Consider twelve compounds from PMC5653750, “hiPSC-CM Monolayer Maturation State Determines Drug Responsiveness in High Throughput Pro-Arrhythmia Screen” (Scientific Reports, 2017).

Data set [1] deals with fetal-like hiPSC-CM monolayers. Description: 96-well optical mapping of action potentials (FluoVolt), fetal-like monolayers. The conditions noted are these: for Maximum APD 80 Prolongation Risk Score (Fetal-like hiPSC-CM): maximal effect on APD independent of dose, APD80 divided by vehicle control APD80, 30 min treatment, concentrations up to 10 µM; for effect on action potential duration (APD80), fetal-like monolayers: spontaneous action potentials, result in words. The data set is classed as cell-based, human. An excerpt:
(§1) hiPSC-CMs were used from two different commercial sources: Cellular Dynamics International (CDI, Madison WI) and Cellartis (Takara Bio USA). Custom made 96-well plates with inserts of PDMS (Polydimethylsiloxane) were generated essentially as before. PDMS vulcanized silicone transparent sheeting was obtained from SMI (Specialty Manufacturing, Inc, Saginaw, MI) with 40D (D, Durometer or ≈1000 kPa) hardness and 9 mm diameter coverslips were cut out to fit in each well of 96 well plates. PDMS coverslips were manually added to each well of 96 well plates (Corning) and each plate was subsequently sterilized via ethylene oxide sterilization. PDMS coverslips were then matrigel-coated (500 μg/mL; BD Biosciences, San Jose, CA) prior to plating hiPSC-CMs. Thawing and plating of cryopreserved vials of cells into 96-well plates was as essentially described before. Briefly, 5 × 10^4 cells were plated per well and allowed to form continuous monolayers and maintained in RPMI (Life Technologies) media supplemented with B27 + insulin (Life Technologies). Monolayers were maintained in culture for seven days before electrophysiological testing. Immature fetal-like hiPSC-CM monolayers were generated in 96 well plates without the PDMS coverslip inserts. Fetal-like hiPSC-CMs were also plated on matrigel coated plastic bottoms.
(§2) Optical mapping was performed as essentially described recently[22] with slight modification. A schematic of the 96-well plate optical mapping set up is shown in supplemental Fig. 1. In this assay a 96-well plate is positioned below a high speed CCD camera (200 fps, 80 × 80 pixels) on a heating block to enable recording at physiological temperature (37 °C). hiPSC-CM monolayers were loaded with the membrane potential dye called FluoVolt™ which is commercially available (ThermoFisher Scientific, F10488). Blue LED illumination was used and spontaneous or electrically excited action potentials were recorded with the CCD camera via appropriate emission filter (515 nm, green light, Chroma). For calcium flux quantification monolayers were loaded with fluo-4AM (10 µM). In this assay a 6 × 6 array of wells (supplemental Fig. 1C, 36 wells total) in the 96-well plate could be imaged simultaneously to enable rapid dose response data for all compounds using up to six different doses. Post-acquisition data analysis was done using custom software (Scroll)[22],[25] with automated peak detection capability and automated repolarization quantification to determine APD80 (action potential at 80% of repolarization). […] In some experiments electrical pacing was done to control for rate of activations (supplemental Fig. 3). A custom made frame of field stimulation electrodes was engineered to enable electrical pacing to the 6 × 6 array of wells.
(§3) Action potentials were recorded in the presence of each test compound.
(§4) The effect of each compound to prolong or shorten the APD80 of hiPSC-CM monolayers was quantified relative to vehicle control values obtained in each plate. In other words, the APD80 or CaTD80 quantified at each concentration of each compound was divided by the APD80 or CaTD80 quantified for vehicle control wells. Risk score values were quantified for both fetal-like and mature hiPSC-CM monolayers.

In data set [2] the test system is mature hiPSC-CM monolayers. The data set can be described thus: 96-well optical mapping of action potentials (FluoVolt), mature monolayers. The data set is classed as cell-based, human. The note with it: for Maximum APD 80 Prolongation Risk Score (Mature hiPSC-CM): maximal effect on APD independent of dose, APD80 divided by vehicle control APD80, 30 min treatment, concentrations up to 10 µM; for effect on action potential duration (APD80), mature monolayers: spontaneous action potentials, result in words.
From the text: as §1, §2, §3, §4

On the set-up of data set [3]: method as in PMID 26893184. The note with it: cited from earlier work.
Data set [4] has as its system fetal-like hiPSC-CM monolayers. Description: Calcium flux optical mapping (fluo-4AM), fetal-like monolayers. The data set is classed as cell-based, human. The note with it: dose response; n = 4 per dose. As for the experimental part:
(§5) Optical mapping was performed as essentially described recently[22] with slight modification. A schematic of the 96-well plate optical mapping set up is shown in supplemental Fig. 1. In this assay a 96-well plate is positioned below a high speed CCD camera (200 fps, 80 × 80 pixels) on a heating block to enable recording at physiological temperature (37 °C). hiPSC-CM monolayers were loaded with the membrane potential dye called FluoVolt™ which is commercially available (ThermoFisher Scientific, F10488). Blue LED illumination was used and spontaneous or electrically excited action potentials were recorded with the CCD camera via appropriate emission filter (515 nm, green light, Chroma). For calcium flux quantification monolayers were loaded with fluo-4AM (10 µM). […] Post-acquisition data analysis was done using custom software (Scroll)[22],[25] with automated peak detection capability and automated repolarization quantification to determine APD80 (action potential at 80% of repolarization). […]
(§6) Nilotinib is an anti-cancer kinase inhibitor compound with possible side effects to prolong the QT interval. […] In Fig. 7 calcium transients were recorded using fluo-4AM loaded monolayers to study the effect of nilotinib on intracellular calcium flux dynamics. […]
Background: A change in cytosolic calcium serves as a functional read-out for many receptors and channels.

In data set [5] the test system is mature hiPSC-CM monolayers. The data set can be described thus: Calcium flux optical mapping (fluo-4AM), mature monolayers. The conditions noted are these: dose response; n = 4 per dose. The data set is classed as cell-based, human. As for the experimental part: as §5, §6

SMILES strings stand for the structures.

Consider `CN1CCN(C2=Nc3cc(Cl)ccc3Nc3ccccc32)CC1` [Clozapine, clozapine], for which, in data set [1], the “Maximum APD 80 Prolongation Risk Score (Fetal-like hiPSC-CM)” value stood at 1.14. Also, the “Maximum APD 80 Prolongation Risk Score (Mature hiPSC-CM)” value in data set [2] was 1.33.

`C=C[C@H]1C[N@@]2CC[C@H]1C[C@@H]2[C@@H](O)c1ccnc2ccc(OC)cc12` [Quinidine, quinidine]: in data set [1], the “Maximum APD 80 Prolongation Risk Score (Fetal-like hiPSC-CM)” value was 1.91. The “Maximum APD 80 Prolongation Risk Score (Mature hiPSC-CM)” value in data set [2] came to 1.81.

For the compound `COc1cccc2c1C(=O)c1c(O)c3c(c(O)c1C2=O)C[C@@](O)(C(=O)CO)C[C@@H]3O[C@H]1C[C@H](N)[C@H](O)[C@H](C)O1` [Doxorubicin, doxorubicin], in data set [1], the “Maximum APD 80 Prolongation Risk Score (Fetal-like hiPSC-CM)” value was 1.15. Also, the “Maximum APD 80 Prolongation Risk Score (Mature hiPSC-CM)” value in data set [2] was 1.15.

For `COc1cc(N)c(Cl)cc1C(=O)NC1CCN(CCCOc2ccc(F)cc2)CC1OC` (stereo not shown) [Cisapride, cisapride], in data set [3], the “CiPA risk class for causing Torsade de Pointes (TdP)” value (shortened to “CiPA risk class”) is recorded as “intermediate risk”. Also, the “Maximum APD 80 Prolongation Risk Score (Fetal-like hiPSC-CM)” value in data set [1] is reported as 1.49. For the same compound, in data set [2], the “Maximum APD 80 Prolongation Risk Score (Mature hiPSC-CM)” value stood at 1.15.

`Cc1cn(-c2cc(NC(=O)c3ccc(C)c(Nc4nccc(-c5cccnc5)n4)c3)cc(C(F)(F)F)c2)cn1` [Nilotinib, nilotinib]: in data set [4], the “calcium transient duration 80 (CaTD80), fetal-like monolayers” value is “increased calcium transient duration 80 (CaTD80) in a dose dependent manner”. In data set [1], the “Maximum APD 80 Prolongation Risk Score (Fetal-like hiPSC-CM)” value was 1.36 and the “effect on action potential duration (APD80), fetal-like monolayers” value (shortened to “effect … fetal-like monolayers”) was “APD prolongation was detected”. Also, in data set [2], the “Maximum APD 80 Prolongation Risk Score (Mature hiPSC-CM)” value was found to be 1.29 and the “effect on action potential duration (APD80), mature monolayers” value (shortened to “effect … mature monolayers”) is “APD prolongation was detected”. Moreover, in data set [5], the “calcium transient duration 80 (CaTD80), mature monolayers” value was “increased calcium transient duration 80 (CaTD80) in a dose dependent manner”.

In the case of `COc1ccc([C@@H]2Sc3ccccc3N(CCN(C)C)C(=O)[C@@H]2OC(C)=O)cc1` [Diltiazem, diltiazem], in data set [1], the “Maximum APD 80 Prolongation Risk Score (Fetal-like hiPSC-CM)” value was found to be 0.97.

With `CN(CCOc1ccc(NS(C)(=O)=O)cc1)CCc1ccc(NS(C)(=O)=O)cc1` [Dofetilide, dofetilide], the “action potential duration alternans, fetal-like monolayers” value in data set [1] (electrical pacing 1 Hz, 100 nM) is on record as “action potential duration alternans were apparent”. For the same compound, the “Maximum APD 80 Prolongation Risk Score (Fetal-like hiPSC-CM)” value in data set [1] was 2.14. The “action potential duration alternans, mature monolayers” value in data set [2] (electrical pacing 1 Hz, 100 nM) is on record as “not in the mature hiPSC-CM monolayers”. In data set [2], the “effect … mature monolayers” value is “did not have as severe action potential duration prolongation”.

For `CC(C)COCC(CN(Cc1ccccc1)c1ccccc1)N1CCCC1` (stereo not shown) [Bepridil, bepridil], in data set [3], the “CiPA risk class” value was “high risk”. Moreover, the “Maximum APD 80 Prolongation Risk Score (Mature hiPSC-CM)” value in data set [2] is given as 1.64.

As to `CCCCc1oc2ccccc2c1C(=O)c1cc(I)c(OCCN(CC)CC)c(I)c1` [Amiodarone, amiodarone], in data set [1], the “Maximum APD 80 Prolongation Risk Score (Fetal-like hiPSC-CM)” value is 0.91 and the “effect … fetal-like monolayers” value is given as “shortened action potential duration”. In data set [2], the “Maximum APD 80 Prolongation Risk Score (Mature hiPSC-CM)” value was 1.34 and the “effect … mature monolayers” value is reported as “prolong the APD”.

In the case of `CC/C(=C(\c1ccccc1)c1ccc(OCCN(C)C)cc1)c1ccccc1` [Tamoxifen, tamoxifen], in data set [1], the “Maximum APD 80 Prolongation Risk Score (Fetal-like hiPSC-CM)” value worked out at 1.12. Besides, in data set [2], the “Maximum APD 80 Prolongation Risk Score (Mature hiPSC-CM)” value is recorded as 1.04.

With `CNCCC(Oc1ccc(C(F)(F)F)cc1)c1ccccc1` (stereo not shown) [Fluoxetine, fluoxetine], the “monolayers in which quiescence was caused” value in data set [1] (10.0 µmol L^−1, 8/8 monolayers) worked out at 100%. In data set [1], the “Maximum APD 80 Prolongation Risk Score (Fetal-like hiPSC-CM)” value worked out at 1 and the “effect … fetal-like monolayers” value was “did not detect any APD80 prolongation”. Besides, the “spontaneous beating frequency, fetal-like monolayers” value in data set [1] (sub-maximal doses (below 10.0 µmol L^−1)) is “nor alteration of the spontaneous beating frequency”. Also, in data set [2], the “spontaneous beating rate, mature monolayers” value was “slowed the spontaneous beating rate” and the “effect … mature monolayers” value is “prolonged the action potential duration”. In addition, the “quiescence, mature monolayers” value in data set [2] (any concentration tested (up to 10.0 µmol L^−1)) is recorded as “did not induce quiescence at any concentration tested”. In addition, in data set [2] (mature monolayers), the “lowest concentration tested, at which action potential duration was already prolonged” value was determined as 1.0 nmol/L.

In the case of `CC(C)(C)c1ccc(C(O)CCCN2CCC(C(O)(c3ccccc3)c3ccccc3)CC2)cc1` (stereo not shown) [Terfenadine, terfenadine], the “CiPA risk class” value in data set [3] is reported as “intermediate risk”. Further, in data set [1], the “Maximum APD 80 Prolongation Risk Score (Fetal-like hiPSC-CM)” value was determined as 1.43 and the “effect … fetal-like monolayers” value is “more sensitive”. Besides, the “Maximum APD 80 Prolongation Risk Score (Mature hiPSC-CM)” value in data set [2] came out at 1.21.
